Structures are written as SMILES.

For assay [1], the target named is FIH (Homo sapiens, UniProt Q9NWT6). The experiment in a line: FIH liquid chromatography-mass spectrometry assay (RapidFire).
Description: After 15 minutes, the enzyme reaction was stopped by the addition of 4 ml 10% formic acid and the reaction mixture transferred to a RapidFire RF360 high throughput sampling robot. Samples were aspirated under vacuum onto a C4 Solid Phase Extraction (SPE) cartridge. […] Ion chromatogram data was extracted for the non-hydroxylated peptide substrate and the hydroxylated peptide product and peak area data for extracted ion chromatograms were integrated using RapidFire Integrator software. Percentage conversion of substrate to product was calculated in Microsoft Excel and IC50 values were calculated using Graphpad Prism 5.
Assay [2] addresses JARID1C (KDM5C) (Homo sapiens, UniProt P41229). Also noted: method as in PMID 26682036. The following applies: cited from earlier work.
Assay [3] has as its target T1, JMJD2E (KDM4E) (Homo sapiens, UniProt B2RXH2).
T1 sequence (B2RXH2 1-506): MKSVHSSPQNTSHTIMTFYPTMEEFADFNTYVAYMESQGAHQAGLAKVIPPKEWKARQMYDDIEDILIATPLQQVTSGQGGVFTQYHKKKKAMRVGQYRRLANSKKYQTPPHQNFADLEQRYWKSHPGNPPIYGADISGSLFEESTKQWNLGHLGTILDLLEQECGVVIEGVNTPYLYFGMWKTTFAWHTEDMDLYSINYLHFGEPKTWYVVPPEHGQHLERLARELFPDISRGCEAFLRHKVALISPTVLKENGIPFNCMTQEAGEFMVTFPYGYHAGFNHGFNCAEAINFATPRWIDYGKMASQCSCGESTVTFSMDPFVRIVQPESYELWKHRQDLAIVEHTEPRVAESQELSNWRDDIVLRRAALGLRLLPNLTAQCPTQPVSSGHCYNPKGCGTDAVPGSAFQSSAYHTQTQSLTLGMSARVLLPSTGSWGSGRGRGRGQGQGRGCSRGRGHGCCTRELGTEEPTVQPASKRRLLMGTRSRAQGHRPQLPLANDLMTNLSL
Also noted: method as in PMID 26682036. The following applies: cited from earlier work.

In assay [4] the target is T2, JMJD2C (KDM4C) (Homo sapiens, UniProt Q9H3R0).
T2 sequence (Q9H3R0 1-1056): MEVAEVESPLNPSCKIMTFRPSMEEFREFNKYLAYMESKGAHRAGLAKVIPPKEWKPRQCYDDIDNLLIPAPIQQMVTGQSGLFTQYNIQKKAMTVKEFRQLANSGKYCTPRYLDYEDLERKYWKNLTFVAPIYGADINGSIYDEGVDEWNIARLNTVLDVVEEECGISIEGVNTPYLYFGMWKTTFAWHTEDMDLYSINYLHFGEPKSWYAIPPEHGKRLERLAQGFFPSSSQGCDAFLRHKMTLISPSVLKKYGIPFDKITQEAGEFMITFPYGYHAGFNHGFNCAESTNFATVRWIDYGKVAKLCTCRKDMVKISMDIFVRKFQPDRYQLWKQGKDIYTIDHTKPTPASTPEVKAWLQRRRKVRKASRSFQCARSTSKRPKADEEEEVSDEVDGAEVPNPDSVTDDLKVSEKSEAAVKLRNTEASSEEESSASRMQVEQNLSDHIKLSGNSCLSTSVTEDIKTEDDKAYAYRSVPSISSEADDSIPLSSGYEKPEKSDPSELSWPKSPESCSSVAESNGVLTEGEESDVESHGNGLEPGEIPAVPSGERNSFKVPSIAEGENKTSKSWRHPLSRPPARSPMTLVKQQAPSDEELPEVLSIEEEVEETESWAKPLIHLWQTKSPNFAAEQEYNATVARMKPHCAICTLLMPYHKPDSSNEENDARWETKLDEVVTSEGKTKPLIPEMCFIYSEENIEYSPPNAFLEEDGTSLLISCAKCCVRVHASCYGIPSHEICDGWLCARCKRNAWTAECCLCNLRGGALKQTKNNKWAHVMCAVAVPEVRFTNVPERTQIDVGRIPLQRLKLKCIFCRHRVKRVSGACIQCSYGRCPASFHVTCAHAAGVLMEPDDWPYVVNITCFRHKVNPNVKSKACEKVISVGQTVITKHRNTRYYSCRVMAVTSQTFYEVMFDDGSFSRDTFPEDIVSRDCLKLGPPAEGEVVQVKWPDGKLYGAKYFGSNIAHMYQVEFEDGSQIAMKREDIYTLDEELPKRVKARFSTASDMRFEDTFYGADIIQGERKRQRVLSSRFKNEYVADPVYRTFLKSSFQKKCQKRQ
Also noted: method as in PMID 26682036. To be noted: cited from earlier work.

Sequence of FIH (Q9NWT6 whole entry): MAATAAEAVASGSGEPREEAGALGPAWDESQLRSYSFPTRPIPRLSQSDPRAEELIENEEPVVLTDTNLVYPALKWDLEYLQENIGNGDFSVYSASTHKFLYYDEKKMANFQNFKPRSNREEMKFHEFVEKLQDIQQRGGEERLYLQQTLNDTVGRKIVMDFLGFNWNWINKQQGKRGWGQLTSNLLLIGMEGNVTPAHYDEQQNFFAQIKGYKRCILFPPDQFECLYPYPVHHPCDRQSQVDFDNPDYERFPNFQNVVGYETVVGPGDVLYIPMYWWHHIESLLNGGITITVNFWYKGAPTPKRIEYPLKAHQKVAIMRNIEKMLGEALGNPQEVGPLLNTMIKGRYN
Sequence of JARID1C (KDM5C) (P41229 whole entry): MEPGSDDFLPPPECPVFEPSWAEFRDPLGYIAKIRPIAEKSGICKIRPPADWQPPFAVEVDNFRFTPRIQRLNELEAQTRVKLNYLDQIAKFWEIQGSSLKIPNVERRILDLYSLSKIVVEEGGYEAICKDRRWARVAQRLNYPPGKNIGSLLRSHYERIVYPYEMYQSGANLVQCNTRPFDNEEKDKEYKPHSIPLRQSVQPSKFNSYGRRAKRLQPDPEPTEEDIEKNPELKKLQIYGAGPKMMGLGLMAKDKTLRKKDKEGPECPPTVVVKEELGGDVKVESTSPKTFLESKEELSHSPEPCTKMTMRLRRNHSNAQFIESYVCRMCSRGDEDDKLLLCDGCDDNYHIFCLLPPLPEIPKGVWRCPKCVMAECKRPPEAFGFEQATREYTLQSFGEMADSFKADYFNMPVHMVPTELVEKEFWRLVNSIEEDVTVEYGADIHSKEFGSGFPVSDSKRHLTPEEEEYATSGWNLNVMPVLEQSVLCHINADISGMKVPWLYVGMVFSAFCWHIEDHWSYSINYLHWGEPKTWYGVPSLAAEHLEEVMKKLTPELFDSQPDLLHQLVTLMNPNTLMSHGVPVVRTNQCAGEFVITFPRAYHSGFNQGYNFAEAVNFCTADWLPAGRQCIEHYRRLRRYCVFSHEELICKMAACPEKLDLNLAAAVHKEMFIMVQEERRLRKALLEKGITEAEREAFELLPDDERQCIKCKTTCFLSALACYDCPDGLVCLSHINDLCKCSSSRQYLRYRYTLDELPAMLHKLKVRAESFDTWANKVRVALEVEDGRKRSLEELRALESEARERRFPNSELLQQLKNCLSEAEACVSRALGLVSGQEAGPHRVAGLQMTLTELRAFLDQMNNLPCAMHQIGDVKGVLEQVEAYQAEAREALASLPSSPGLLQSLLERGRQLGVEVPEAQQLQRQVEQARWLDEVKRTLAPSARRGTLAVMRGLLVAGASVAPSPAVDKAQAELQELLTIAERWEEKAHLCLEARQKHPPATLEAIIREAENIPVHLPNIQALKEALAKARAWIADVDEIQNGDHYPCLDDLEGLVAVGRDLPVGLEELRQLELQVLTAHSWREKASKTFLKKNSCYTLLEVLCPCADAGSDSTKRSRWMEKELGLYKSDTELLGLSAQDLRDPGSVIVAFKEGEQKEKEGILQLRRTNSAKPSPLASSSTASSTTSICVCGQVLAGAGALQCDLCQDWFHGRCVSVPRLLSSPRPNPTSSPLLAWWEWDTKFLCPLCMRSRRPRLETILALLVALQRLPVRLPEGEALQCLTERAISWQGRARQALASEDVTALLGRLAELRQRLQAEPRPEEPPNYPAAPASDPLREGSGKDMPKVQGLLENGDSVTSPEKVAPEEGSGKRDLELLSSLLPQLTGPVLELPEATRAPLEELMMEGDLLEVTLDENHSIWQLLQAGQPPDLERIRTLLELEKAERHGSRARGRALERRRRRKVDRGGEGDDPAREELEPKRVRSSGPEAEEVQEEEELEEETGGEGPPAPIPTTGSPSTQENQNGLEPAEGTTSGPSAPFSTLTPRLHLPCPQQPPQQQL

For the compound `O=C(O)CNC(=O)c1c(O)c2ccccc2n(Cc2ccccc2)c1=O` [IOX2], the concentration for half-maximal inhibition (IC50) – broadly, the midpoint of a concentration-inhibition curve – in assay [1] was greater than 100 µM; in assay [2], 159 µM; in assay [3] it was greater than 100 µM; in assay [4] it was 100 µM.
